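The compound was tested at five concentrations on cells cultured in 96-well plates, with a 48-hour exposure period. GI50 = concentration required for 50% inhibition of growth.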 Calls of active or inactive are those of the source. Rule as the data show it: active = GI50 up to about 1.1 µM and inactive = higher.
How the values were obtained:
Experiment in all cases: inhibition of tumour cell growth, NCI panel, 48 h
SF-268 = tested on: SF-268
HOP-62 = tested on: HOP-62
UO-31 = tested on: UO-31
EKVX = tested on: EKVX
K562 = tested on: K562
ACHN = tested on: ACHN
CCRF-CEM = tested on: CCRF-CEM
UACC-257 = tested on: UACC-257
RXF 393 = tested on: RXF 393
SF-295 = tested on: SF-295
IGROV-1 = tested on: IGROV-1
SN12C = tested on: SN12C
786-0 = tested on: 786-0
OVCAR-8 = tested on: OVCAR-8
NCI-H23 = tested on: NCI-H23
TK-10 = tested on: TK-10
RPMI-8226 = tested on: RPMI-8226
OVCAR-5 = tested on: OVCAR-5
SK-MEL-5 = tested on: SK-MEL-5

| SMILES | GI50 (SF-268) | GI50 (HOP-62) | GI50 (UO-31) | GI50 (EKVX) | GI50 (K562) | GI50 (ACHN) | GI50 (CCRF-CEM) | GI50 (UACC-257) | GI50 (RXF 393) | GI50 (SF-295) | GI50 (IGROV-1) | GI50 (SN12C) | GI50 (786-0) | GI50 (OVCAR-8) | GI50 (NCI-H23) | GI50 (TK-10) | GI50 (RPMI-8226) | GI50 (OVCAR-5) | GI50 (SK-MEL-5) |
| --- | --- | --- | --- | --- | --- | --- | --- | --- | --- | --- | --- | --- | --- | --- | --- | --- | --- | --- | --- |
| O=C(O)CCSC(=O)Nc1cccc([N+](=O)[O-])c1 | 17 µM (inactive) | > 100 µM (inactive) | 63 µM (inactive) | > 100 µM (inactive) | > 100 µM (inactive) | 52.7 µM (inactive) | > 100 µM (inactive) | > 100 µM (inactive) | > 100 µM (inactive) | > 100 µM (inactive) | 72.6 µM (inactive) | 94.6 µM (inactive) | > 100 µM (inactive) | > 100 µM (inactive) | > 100 µM (inactive) | > 100 µM (inactive) | > 100 µM (inactive) |  |  |
| CCOc1ccc([Se][Se]c2ccc(OCC)cc2)cc1 | 70.1 µM (inactive) |  | 27.5 µM (inactive) | > 100 µM (inactive) |  |  |  |  | 35.5 µM (inactive) | > 100 µM (inactive) | 94.4 µM (inactive) | > 100 µM (inactive) | > 100 µM (inactive) | > 100 µM (inactive) | 11.5 µM (inactive) | > 100 µM (inactive) | 28.1 µM (inactive) | 18.8 µM (inactive) |  |
| COC(=O)C(CCCCCCCC(C(=O)OC)C1=Nc2nnc(N)n2C1=O)C1=Nc2nnc(N)n2C1=O (stereo not drawn) | > 100 µM (inactive) | > 100 µM (inactive) | > 100 µM (inactive) | > 100 µM (inactive) |  | > 100 µM (inactive) | > 100 µM (inactive) | > 100 µM (inactive) | 55.8 µM (inactive) | 61.9 µM (inactive) | > 100 µM (inactive) | > 100 µM (inactive) | > 100 µM (inactive) | 94.8 µM (inactive) | > 100 µM (inactive) | > 100 µM (inactive) | 4.07 µM (inactive) | > 100 µM (inactive) | > 100 µM (inactive) |
| COc1cc2c(/C=C3/C(=O)Nc4ccc(Cl)cc43)c(Cl)[nH]c2cc1C | 1.03 µM (active) | 0.439 µM (active) | 1.34 µM (inactive) |  | 0.394 µM (active) | 0.587 µM (active) | 0.332 µM (active) | 0.553 µM (active) | 0.375 µM (active) | 0.356 µM (active) | 0.368 µM (active) | 0.325 µM (active) | 0.731 µM (active) | 1.73 µM (inactive) | 0.916 µM (active) | 1.05 µM (active) | 0.91 µM (active) | 3.27 µM (inactive) | 0.592 µM (active) |
| COC(=O)C(=O)C(C(=O)OC)C(=O)C(=O)Nc1cc(Cl)c(C)cc1S(=O)(=O)O (stereo not drawn) | > 100 µM (inactive) | > 100 µM (inactive) | > 100 µM (inactive) | > 100 µM (inactive) | > 100 µM (inactive) | > 100 µM (inactive) | > 100 µM (inactive) | > 100 µM (inactive) | > 100 µM (inactive) | > 100 µM (inactive) | > 100 µM (inactive) | > 100 µM (inactive) | > 100 µM (inactive) | > 100 µM (inactive) | > 100 µM (inactive) | > 100 µM (inactive) |  | > 100 µM (inactive) | > 100 µM (inactive) |
| O=C(COc1ccccc1Cl)N1N=C(c2ccc(Cl)cc2)CC1(O)c1ccccc1 (stereo not drawn) | > 100 µM (inactive) | > 100 µM (inactive) | > 100 µM (inactive) |  | > 100 µM (inactive) | > 100 µM (inactive) |  | > 100 µM (inactive) |  | > 100 µM (inactive) | > 100 µM (inactive) | > 100 µM (inactive) | > 100 µM (inactive) | > 100 µM (inactive) | > 100 µM (inactive) | > 100 µM (inactive) | > 100 µM (inactive) | > 100 µM (inactive) |  |
| COc1cc2c(cc1O)[C@H](C)C(c1ccccc1OC)O2 (stereo partly drawn) | 5.75 µM (inactive) |  | 8.57 µM (inactive) | 6.87 µM (inactive) | 2.81 µM (inactive) | 4.34 µM (inactive) | 4.21 µM (inactive) | 18.2 µM (inactive) | 10.9 µM (inactive) | 3.2 µM (inactive) | 5.24 µM (inactive) |  | 5.61 µM (inactive) | 10.3 µM (inactive) | 6.31 µM (inactive) | 20.3 µM (inactive) | 2.64 µM (inactive) | 75.2 µM (inactive) | 3.16 µM (inactive) |
| CCCN(CCC)C(=O)Cc1c2n(c3ccccc13)CCCc1ccccc1-2 | 15.1 µM (inactive) | 16.4 µM (inactive) | 14.1 µM (inactive) | 15.1 µM (inactive) | 12.5 µM (inactive) | 12.6 µM (inactive) | 17.4 µM (inactive) | 13.9 µM (inactive) | 10.4 µM (inactive) | 10.6 µM (inactive) |  | 15.5 µM (inactive) | 16.9 µM (inactive) | 16.3 µM (inactive) | 13 µM (inactive) | 15.7 µM (inactive) | 14.4 µM (inactive) |  | 14.3 µM (inactive) |
